Patent publication US20050148514A1, “Method and composition for treatment of angiogenesis” (priority 2003, published 2005)
Where no end group is shown, it is not given here.

How the values were obtained:
ERK [1] = test: Intrinsic effect on ERK phosphorylation (western blot); assay type: cell-based
Protocol: (§1) In order to investigate the potential intracellular pathways triggered by the PCK3145 derivative, a gene-reporter assay using the SEAP (Secreted Alkaline Phosphatase) Mercury Profiling Kit (CLONTECH) was performed in glioma cells (U-87). This assay enables the monitoring of transcription factors that are triggered by a particular experimental condition by assaying the alkaline phosphatase activity in the extracellular media. […] The induction of the MAPK pathway by the PCK3145 derivative is further confirmed by the rapid and transient induction of ERK phosphorylation between 5-10 minutes (FIG. 8B) and is shown to be dose-dependent (FIG. 8C). Finally, the effects of the PCK3145 derivative were also compared to those of a scrambled peptide.

ERK [2] = test: VEGF-induced ERK phosphorylation in BAEC; assay type: cell-based; conditions: data not shown
Protocol: VEGF is a strong activator of ERKs (Extracellular-signal-Regulated protein Kinases) 1 and 2 via VEGF receptor 2. In order to test the ability of the PCK3145 derivative in potentially antagonizing VEGF-mediated ERK phosphorylation, serum-starved quiescent endothelial cells (HUVEC) were incubated with vehicle (phosphate-buffered saline (PBS) pH 7.4) or PCK3145 derivative (300 μg/ml) for 24 h and then stimulated with VEGF, bFGF (basic Fibroblast Growth Factor) or S1P (sphingosine-1-phosphate). Cells were washed with PBS containing NaF/Na3VO4 and incubated in the same medium buffer for 1 h at 4° C. The cells were scraped from the culture dishes and the resulting lysates clarified by centrifugation. Western blotting and immunodetection using anti-phosphoERK and anti-ERK antibodies was then performed.
The total amount of ERK in each sample of cells was unaffected by the PCK3145 derivative (FIG. 4A). Although, PCK3145 derivative also seemed to stimulate ERK phosphorylation induced by S1P in HUVEC (FIG. 4A), that result was found not statistically significant.

NFkB pathway = test: SEAP gene-reporter assay in U-87 glioma cells, NFkB element; assay type: cell-based; conditions: alkaline phosphatase activity in extracellular media
Protocol: as §1

PDGF receptor (PDGFR) = molecular target: T1, PDGF receptor (PDGFR) (Homo sapiens, UniProt P09619); test: PDGF-induced PDGFR phosphorylation in PASMC; assay type: cell-based; conditions: treatment as for HUVEC
T1 construct: host or cells: PASMC (pulmonary aortic smooth muscle cells)
T1 sequence (P09619 33-1106): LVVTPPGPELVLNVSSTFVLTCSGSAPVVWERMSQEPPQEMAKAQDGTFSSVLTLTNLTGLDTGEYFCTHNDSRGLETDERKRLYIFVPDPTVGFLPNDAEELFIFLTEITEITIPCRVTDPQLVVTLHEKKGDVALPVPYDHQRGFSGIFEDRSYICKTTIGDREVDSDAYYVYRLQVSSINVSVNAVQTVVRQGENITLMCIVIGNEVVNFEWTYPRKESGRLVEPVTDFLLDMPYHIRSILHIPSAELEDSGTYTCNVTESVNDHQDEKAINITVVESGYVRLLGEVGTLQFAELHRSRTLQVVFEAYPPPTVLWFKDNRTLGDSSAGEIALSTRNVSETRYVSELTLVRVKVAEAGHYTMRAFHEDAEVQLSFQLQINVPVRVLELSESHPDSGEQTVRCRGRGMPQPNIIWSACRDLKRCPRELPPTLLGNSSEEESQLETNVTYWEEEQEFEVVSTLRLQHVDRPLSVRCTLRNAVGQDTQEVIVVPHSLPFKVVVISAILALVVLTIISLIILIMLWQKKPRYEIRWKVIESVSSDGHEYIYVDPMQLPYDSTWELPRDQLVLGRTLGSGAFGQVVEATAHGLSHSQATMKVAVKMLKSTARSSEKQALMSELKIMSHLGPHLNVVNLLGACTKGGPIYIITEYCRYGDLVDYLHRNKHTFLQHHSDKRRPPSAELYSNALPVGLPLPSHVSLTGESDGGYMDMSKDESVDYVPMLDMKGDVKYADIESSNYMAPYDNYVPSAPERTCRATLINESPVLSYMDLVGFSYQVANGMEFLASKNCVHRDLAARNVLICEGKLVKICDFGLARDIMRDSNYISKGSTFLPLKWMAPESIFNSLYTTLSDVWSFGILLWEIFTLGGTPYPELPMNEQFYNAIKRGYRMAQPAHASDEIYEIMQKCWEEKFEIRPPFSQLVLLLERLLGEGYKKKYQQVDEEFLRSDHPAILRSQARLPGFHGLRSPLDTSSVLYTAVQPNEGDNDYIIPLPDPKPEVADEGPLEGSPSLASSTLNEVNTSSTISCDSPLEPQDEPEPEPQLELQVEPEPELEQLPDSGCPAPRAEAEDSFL
Protocol: Cell culture. Human umbilical vein endothelial cells (HUVEC) and pulmonary aortic smooth muscle cells (PASMC) were obtained from Clonetics and maintained in endothelial cell basal medium-2, (EBM-2; Clonetics) and smooth muscle medium-2 (SmGM-2; Clonetics), respectively. Cells were cultured at 37° C. under a humidified atmosphere containing 5% CO2. For experimental purposes, cells were plated in 8 100-mm plastic dishes at 5,000 cells/cm^2 and were grown to confluence before overnight serum starvation. Cells were treated with vehicle or with a PCK3145 derivative diluted in 0.1 N NaOH, and stimulated with 50 ng/ml VEGF, PDGF or with 1 μM S1P.
Immunoprecipitation and immunoblotting procedures. After treatment, cells were washed once with phosphate-buffered saline (PBS) containing 1 mM sodium orthovanadate and were incubated in the same medium for 1 h at 4° C. The cells were solubilized on ice in lysis buffer (150 mM NaCl, 10 mM Tris-HCl, pH 7.4, 1 mM EDTA, 1 mM EGTA, 0.5% Nonidet P-40, 1% Triton X-100) containing 1 mM sodium orthovanadate. The cells were then scraped from the culture dishes and the resulting lysates were clarified by centrifugation at 10,000 g for 10 min. Protein concentrations were determined using the micro bicinchoninic acid method. For immunoprecipitation studies, lysates were clarified by a 1 h incubation at 4° C. with a mixture of Protein A/Protein G Sepharose beads. […]

proMMP-2 = test: Gelatin zymography of conditioned media of serum-starved HUVEC; assay type: cell-based, Human; conditions: 300 μg/ml, 24 hours
Protocol: Zymography. Zymography is a technique generally used to analyze the activity of matrix metalloproteinases (MMPs) in biological samples. It involves the electrophoretic separation of proteins under denaturing (Sodium Dodecyl Sulfate (SDS)) but non-reducing conditions through a polyacrylamide gel containing gelatin (for example, 10% gel containing 1 mg/ml gelatin for MMP-9 and MMP-2 assays). The resolved proteins are re-natured by exchanging SDS with a non-ionic detergent such as Triton X-100 and the gel is incubated in an incubation buffer for activation of MMP-2 and MMP-9 (for example at 37° C. for 18 hrs). The gel is stained with Coomassie blue and the MMP-2 and MMP-9 bands may be visualized as clear bands against a blue background (i.e., the MMPs degrade the gelatin and are visualized as clear bands; pro MMP-2 is 68 kDa and pro-MMP-9 is 92 kDa). These bands can be quantified using densitometry.
Cell culture. Human umbilical vein endothelial cells (HUVEC) and pulmonary aortic smooth muscle cells (PASMC) were obtained from Clonetics and maintained in endothelial cell basal medium-2, (EBM-2; Clonetics) and smooth muscle medium-2 (SmGM-2; Clonetics), respectively. […]
The effect of the PCK3145 derivative (SEQ ID NO.:7) on MMP extracellular levels was assessed by gelatin-zymography in the conditioned media of serum-starved HUVEC. […]

[3] = system: constitutive secretion pathway; test: SEAP gene-reporter assay in U-87 glioma cells, constitutively expressed SEAP; assay type: cell-based
Protocol: as §1

For “EWQTDNCETCTCYET (cysteine pairing not given here)”, the “dose dependence of induction of ERK phosphorylation” value (ERK [1]; dose-response) was “dose-dependent”, the “time of rapid and transient induction of ERK phosphorylation” value (ERK [1]; time-course, no growth factor) was 5 to 10 min and the “ERK phosphorylation induced by VEGF” value (ERK [2]) was “inhibitory effect was confirmed”. For the same sequence, the “SEAP reporter, NFkB pathway” value (NFkB pathway) was “triggers significantly”, the “PDGFR phosphorylation induced by PDGF” value (PDGF receptor (PDGFR)) was “inhibition” and the “inhibition of VEGF-induced proMMP-2 secretion” value (proMMP-2) was “approximately 50%”. The “secretion of the constitutively expressed SEAP” value [3] was “inhibited”.
